Test results taken from patent US8883963B2 (Cadila Healthcare Limited, priority 2007, dated 2014).
Starred links: 1 amine or outer side, 2 acyl side, 3 side chain; linkers in the order of their positions; H or OH if unused. Non-standard residues stand in square brackets, D forms with d. Residues, ends and D or L forms follow the SMILES beside them. ξ: configuration not given here. ξBip(2'-Et-4'-OMe) = CCc1cc(OC)ccc1-c1ccc(CC(N)C(=O)O)cc1; X12 = COc1ccc(CCCC(N[*:1])C(=O)[*:2])c(Cl)c1; ξαMePhe(2-F) = CC(N)(Cc1ccccc1F)C(=O)O; X2 = O=C(C(CCCc1ccccc1Cl)N[*:1])[*:2]; Aib = CC(C)(N)C(=O)O

Experiments:
[1] = test system: C57BL/6J mice (mild hyperglycemic); experiment: In vivo glucose reduction, acute single dose 120-min time-course, i.p. route; design: species or system mouse; unit not given here; conditions: male C57BL/6J mice
Experimental: All the animal experiments were carried out according to the internationally valid guidelines following approval by the ‘Zydus Research Center animal ethical committee’.
Two days prior to the study, the animals were randomised and divided into 5 groups (n=6), based upon their fed glucose levels. On the day of experiment, food was withdrawn from all the cages, water was given ad-libitum and were kept for overnight fasting. Vehicle (normal saline)/test/standard compounds were administered intraperitoneally (i.p.) or orally, on a body weight basis.
(§1) Blood samples were centrifuged and the separated serum was immediately subjected for the glucose estimation. Serum for insulin estimation was stored at −70° C. until used for the insulin estimation. The glucose estimation was carried out with DPEC-GOD/POD method (Ranbaxy Fine Chemicals Limited, Diagnostic division, India), using Spectramax-190, in 96-microwell plate reader (Molecular devices Corporation, Sunnyvale, Calif.). […] The AUC and BCAUC obtained from graphs were analyzed for one way ANOVA, followed by Dunnett's post test, using Graph Pad prism software. Furthermore, the insulin estimation was carried out using rat/mouse insulin ELISA kit (Linco research, Missouri USA).

[2] = test system: C57BL/6J mice (mild hyperglycemic); experiment: In vivo glucose reduction, acute single dose 120-min time-course, oral route; design: species or system mouse; unit not given here; conditions: male C57BL/6J mice, 2 μM/kg oral
Experimental: Acute single dose 120-min time-course experiments were carried out in male C57BL/6J or db/db mice, age 8-12 weeks, bred in-house. Animals were housed in groups of 6 animals per cage, for a week, in order to habituate them to vivarium conditions (25±4° C., 60-65% relative humidity, 12:12 h light:dark cycle, with lights on at 7.30 am). All the animal experiments were carried out according to the internationally valid guidelines following approval by the ‘Zydus Research Center animal ethical committee’.
Two days prior to the study, the animals were randomised and divided into 5 groups (n=6), based upon their fed glucose levels. On the day of experiment, food was withdrawn from all the cages, water was given ad-libitum and were kept for overnight fasting. Vehicle (normal saline)/test/standard compounds were administered intraperitoneally (i.p.) or orally, on a body weight basis. Soon after the 0 min. blood collection from each animal, the subsequent blood collections were done at 30, 60 and 120 or up to 240 min., via retro-orbital route, under light ether anesthesia (Chen, D., et al., Diabetes Obesity Metabolism, 2005, 7, 307. Kim, J. G. et al., Diabetes, 2003, 52, 751).
as §1, with “USA). Changes in the blood glucose levels, at 0, 30, 60 and 120 min, with selected peptidomimetics are shown in Table 7 (via ip route of administration) and Table 8 (via oral route of administration) respectively.” for “USA).”

Compound: CCc1cc(OC)ccc1-c1ccc(CC(NC(=O)[C@H](CC(=O)O)NC(=O)[C@H](CO)NC(=O)[C@@H](NC(=O)C(C)(Cc2ccccc2F)NC(=O)[C@@H](NC(=O)CNC(=O)C(CCC#N)NC(=O)C(C)(C)NC(=O)[C@@H](N)Cc2c[nH]cn2)[C@H](C)O)[C@H](C)O)C(=O)NC(CCCc2ccccc2F)C(N)=O)cc1 (single isomer, unassigned) [Seq. ID. 116]
- blood glucose levels ([1]; 50 nM/kg i.p., 0 min): 184 ± 5.0
- blood glucose levels ([1]; 50 nM/kg i.p., 30 min): 122 ± 3.8
- blood glucose levels ([1]; 50 nM/kg i.p., 60 min): 128 ± 2.1
- blood glucose levels ([1]; 50 nM/kg i.p., 120 min): 149 ± 2.3
- blood glucose levels ([2]; 0 min): 185 ± 2.1
- blood glucose levels ([2]; 30 min): 115 ± 2.8
- blood glucose levels ([2]; 60 min): 112 ± 4.9
- blood glucose levels ([2]; 120 min): 111 ± 2.2

Compound: CCc1cc(OC)ccc1-c1ccc(CC(C(=O)N(C)C(CCCc2ccccc2)C(N)=O)N(C)C(=O)[C@H](CC(=O)O)N(C)C(=O)[C@H](CO)NC(=O)[C@@H](NC(=O)C(C)(Cc2ccccc2F)NC(=O)[C@@H](NC(=O)CNC(=O)C(CCC#N)NC(=O)C(C)(C)NC(=O)[C@@H](N)Cc2c[nH]cn2)[C@H](C)O)[C@H](C)O)cc1 (single isomer, unassigned) [Seq. ID. 154]
- blood glucose levels ([1]; 30 nM/kg i.p., 0 min): 181 ± 4.1
- blood glucose levels ([1]; 30 nM/kg i.p., 30 min): 117 ± 3.8
- blood glucose levels ([1]; 30 nM/kg i.p., 60 min): 117 ± 3.0
- blood glucose levels ([1]; 30 nM/kg i.p., 120 min): 117 ± 1.6
- blood glucose levels ([2]; 0 min): 181 ± 2.5
- blood glucose levels ([2]; 30 min): 117 ± 3.3
- blood glucose levels ([2]; 60 min): 112 ± 4.0
- blood glucose levels ([2]; 120 min): 108 ± 2.9

Compound: CCc1cc(OC)ccc1-c1ccc(CC(C(=O)N(C)C(CCCc2ccccc2)C(N)=O)N(C)C(=O)[C@H](CC(=O)O)NC(=O)[C@H](CO)NC(=O)[C@@H](NC(=O)C(C)(Cc2ccccc2F)NC(=O)[C@@H](NC(=O)CNC(=O)C(CCC#N)NC(=O)C(C)(C)NC(=O)[C@@H](N)Cc2c[nH]cn2)[C@H](C)O)[C@H](C)O)cc1 (single isomer, unassigned) [Seq. ID. 142]
- blood glucose levels ([1]; 30 nM/kg i.p., 0 min): 183 ± 4.9
- blood glucose levels ([1]; 30 nM/kg i.p., 30 min): 117 ± 2.5
- blood glucose levels ([1]; 30 nM/kg i.p., 60 min): 116 ± 2.3
- blood glucose levels ([1]; 30 nM/kg i.p., 120 min): 119 ± 2.0
- blood glucose levels ([2]; 0 min): 185 ± 2.3
- blood glucose levels ([2]; 30 min): 115 ± 3.8
- blood glucose levels ([2]; 60 min): 113 ± 4.9
- blood glucose levels ([2]; 120 min): 109 ± 2.2

Compound: CCc1cc(OC)ccc1-c1ccc(CC(NC(=O)[C@H](CC(=O)O)NC(=O)[C@H](CO)NC(=O)[C@@H](NC(=O)[C@H](Cc2ccccc2)NC(=O)[C@@H](NC(=O)CNC(=O)C(CCC#N)NC(=O)C(C)(C)NC(=O)[C@@H](N)Cc2c[nH]cn2)[C@@H](C)O)[C@@H](C)O)C(=O)NC(CCCc2ccc(OC)cc2Cl)C(N)=O)cc1 (single isomer, unassigned) [Seq. ID. 84]
- blood glucose levels ([1]; 10 nM/kg i.p., 0 min): 182 ± 2.3
- blood glucose levels ([1]; 10 nM/kg i.p., 30 min): 110 ± 2.3
- blood glucose levels ([1]; 10 nM/kg i.p., 60 min): 112 ± 3.0
- blood glucose levels ([1]; 10 nM/kg i.p., 120 min): 112 ± 1.9
- blood glucose levels ([2]; 0 min): 183 ± 2.4
- blood glucose levels ([2]; 30 min): 116 ± 3.1
- blood glucose levels ([2]; 60 min): 112 ± 4.8
- blood glucose levels ([2]; 120 min): 110 ± 2.5

Compound: CCc1cc(OC)ccc1-c1ccc(CC(CNC(CCCc2ccccc2F)C(N)=O)NC[C@H](CC(=O)O)NC(=O)[C@H](CO)NC(=O)[C@@H](NC(=O)C(C)(Cc2ccccc2F)NC(=O)[C@@H](NC(=O)CNC(=O)[C@H](CCC(N)=O)NC(=O)C(C)(C)NC(=O)[C@H](Cc2c[nH]cn2)NC(C)=O)[C@@H](C)O)[C@@H](C)O)cc1 (single isomer, unassigned) [Seq. ID. 195]
- blood glucose levels ([1]; 10 nM/kg i.p., 0 min): 182 ± 2.3
- blood glucose levels ([1]; 10 nM/kg i.p., 30 min): 110 ± 2.3
- blood glucose levels ([1]; 10 nM/kg i.p., 60 min): 112 ± 3.0
- blood glucose levels ([1]; 10 nM/kg i.p., 120 min): 112 ± 1.9

Compound: CCc1cc(OC)ccc1-c1ccc(CC(CNC(CCCc2ccccc2)C(N)=O)NC[C@H](CC(=O)O)NC(=O)[C@H](CO)NC(=O)[C@@H](NC(=O)C(C)(Cc2ccccc2F)NC(=O)[C@@H](NC(=O)CNC(=O)[C@H](CCC(N)=O)NC(=O)C(C)(C)NC(=O)[C@H](Cc2c[nH]cn2)NC(C)=O)[C@H](C)O)[C@H](C)O)cc1 (single isomer, unassigned) [Seq. ID. 197]
- blood glucose levels ([1]; 50 nM/kg i.p., 0 min): 180 ± 4.2
- blood glucose levels ([1]; 50 nM/kg i.p., 30 min): 113 ± 3.2
- blood glucose levels ([1]; 50 nM/kg i.p., 60 min): 112 ± 2.4
- blood glucose levels ([1]; 50 nM/kg i.p., 120 min): 110 ± 1.9

Compound: CCc1cc(OC)ccc1-c1ccc(CC(NC(=O)[C@H](CC(=O)O)NC(=O)[C@H](CO)NC(=O)[C@@H](NC(=O)C(C)(Cc2ccccc2F)NC(=O)[C@@H](NC(=O)CNC(=O)[C@H](CCC(N)=O)NC(=O)C(C)(C)NC(=O)[C@@H](N)Cc2c[nH]cn2)[C@@H](C)O)[C@@H](C)O)C(=O)NC(CCCc2ccc(OC)cc2Cl)C(N)=O)cc1 (stereo partly drawn) [Seq. ID. 92] (H-H[Aib]QGT[ξαMePhe(2-F)]TSD[ξBip(2'-Et-4'-OMe)][X12]-NH2)
- blood glucose levels ([1]; 10 nM/kg i.p., 0 min): 180 ± 4.2
- blood glucose levels ([1]; 10 nM/kg i.p., 30 min): 113 ± 3.2
- blood glucose levels ([1]; 10 nM/kg i.p., 60 min): 112 ± 2.4
- blood glucose levels ([1]; 10 nM/kg i.p., 120 min): 110 ± 1.9

Compound: CCc1cc(OC)ccc1-c1ccc(CC(CNC(CCCc2ccccc2)C(N)=O)NC[C@H](CC(=O)O)NC(=O)[C@H](CO)NC(=O)[C@@H](NC(=O)C(C)(Cc2ccccc2F)NC(=O)[C@@H](NC(=O)CNC(=O)[C@H](CCC(N)=O)NC(=O)C(C)(C)NC(=O)[C@H](Cc2c[nH]cn2)NC(=O)OC)[C@@H](C)O)[C@@H](C)O)cc1 (single isomer, unassigned) [Seq. ID. 194]
- blood glucose levels ([1]; 10 nM/kg i.p., 0 min): 183 ± 2.2
- blood glucose levels ([1]; 10 nM/kg i.p., 30 min): 113 ± 2.8
- blood glucose levels ([1]; 10 nM/kg i.p., 60 min): 113 ± 2.9
- blood glucose levels ([1]; 10 nM/kg i.p., 120 min): 114 ± 2.0

Compound: CCc1cc(OC)ccc1-c1ccc(CC(CNC(CCCc2ccccc2F)C(N)=O)NC(=O)[C@H](CC(=O)O)NC(=O)[C@H](CO)NC(=O)[C@@H](NC(=O)C(C)(Cc2ccccc2F)NC(=O)[C@@H](NC(=O)CNC(=O)C(CCC#N)NC(=O)C(C)(C)NC(=O)[C@@H](N)Cc2c[nH]cn2)[C@H](C)O)[C@H](C)O)cc1 (single isomer, unassigned) [Seq. ID. 192]
- blood glucose levels ([1]; 10 nM/kg i.p., 0 min): 180 ± 2.5
- blood glucose levels ([1]; 10 nM/kg i.p., 30 min): 110 ± 2.6
- blood glucose levels ([1]; 10 nM/kg i.p., 60 min): 111 ± 3.2
- blood glucose levels ([1]; 10 nM/kg i.p., 120 min): 112 ± 2.3

Compound: CCc1cc(OC)ccc1-c1ccc(CC(C(=O)N(C)C(CCCc2ccccc2F)C(N)=O)N(C)C(=O)[C@H](CC(=O)O)N(C)C(=O)[C@H](CO)NC(=O)[C@@H](NC(=O)C(C)(Cc2ccccc2F)NC(=O)[C@@H](NC(=O)CNC(=O)C(CCC#N)NC(=O)C(C)(C)NC(=O)[C@@H](N)Cc2c[nH]cn2)[C@H](C)O)[C@H](C)O)cc1 (single isomer, unassigned) [Seq. ID. 156]
- blood glucose levels ([1]; 30 nM/kg i.p., 0 min): 180 ± 3.2
- blood glucose levels ([1]; 30 nM/kg i.p., 30 min): 119 ± 3.2
- blood glucose levels ([1]; 30 nM/kg i.p., 60 min): 117 ± 3.1
- blood glucose levels ([1]; 30 nM/kg i.p., 120 min): 118 ± 1.8

Compound: CCc1cc(OC)ccc1-c1ccc(CC(NC(=O)[C@H](CC(=O)O)NC(=O)[C@H](CO)NC(=O)[C@@H](NC(=O)C(C)(Cc2ccccc2F)NC(=O)[C@@H](NC(=O)CNC(=O)[C@H](CCC(N)=O)NC(=O)C(C)(C)NC(=O)[C@@H](N)Cc2c[nH]cn2)[C@@H](C)O)[C@@H](C)O)C(=O)NC(CCCc2ccccc2Cl)C(N)=O)cc1 (stereo partly drawn) [Seq. ID. 90] (H-H[Aib]QGT[ξαMePhe(2-F)]TSD[ξBip(2'-Et-4'-OMe)][X2]-NH2)
- blood glucose levels ([1]; 10 nM/kg i.p., 0 min): 181 ± 2.5
- blood glucose levels ([1]; 10 nM/kg i.p., 30 min): 111 ± 3.4
- blood glucose levels ([1]; 10 nM/kg i.p., 60 min): 113 ± 3.1
- blood glucose levels ([1]; 10 nM/kg i.p., 120 min): 110 ± 1.8
